Experimental data published in US9040713B2, “Methods of managing blood sugar levels and compositions related thereto” (EMORY UNIVERSITY, priority 2010, dated 2015).

Key:
[1] = tested on: 3T3-L1 adipocytes; experiment: [3H] 2-deoxyglucose transport in 3T3-L1 adipocytes; assay type: cell-based, mouse; conditions: for glucose uptake after depletion of IR: siRNA against IR
Method: NIH 3T3-L1 preadipocytes and MEFs were grown in standard media. MEF were continuously passed in standard media to generate spontaneously immortalizedfibroblasts. […] 3T3-L1 adipocytes were reseeded into 12-well plates 10 to 12 days after differentiation. […] The transport reaction was initiated by adding 2-deoxyglucose (final 100 uM) with [3H] 2-deoxyglucose (0.2 μCi/well). After a 10 min incubation period, cells were washed three times with ice-cold PBS, solubilized in 1% SDS, 1M NaOH. After neutralization, radioactivity was measured by scintillation counting

[2] = tested on: db/db mice; experiment: Blood glucose level test in db/db mice; assay type: in vivo, mouse; conditions: for duration of blood glucose lowering effect: DDN 5 mg/kg oral, insulin 1 U/kg i.p.
Method: Three-month-old mice were starved for 12 h and then orally administrated with vehicle (0.5% methylcellulose) or DDN (5 mg/kg). Cell lysates were prepared from liver and muscle tissues collected at 1 and 2 h after drug administration and analyzed by immunoprecipitation and immunoblotting. […] Three-month-old mice were starved for 12 h and then orally administrated with vehicle (0.5% methylcellulose) or DDN (5 mg/kg). Cell lysates were prepared from liver and muscle tissues collected at 1 and 2 h after drug administration and analyzed by immunoprecipitation and immunoblotting. (C) Hypoglycemic function of DDN in db/db mice. The animals were starved for 12 h and then orally injected with vehicle (0.5% methylcellulose) or DDN (5 mg/kg). […] Blood glucose was monitored before and after drug administration at 1-hour intervals (*: P<0.05, **: P<0.01, n=5, Two-way ANOVA vs vehicle). (D) DDN improves the glucose tolerance in ob/ob mice. The animals were starved for 12 h and then orally dosed with vehicle (0.5% methylcellulose) or DDN (5 mg/kg). […] A bonus of glucose (2 gm/kg) was injected intraperitoneally 1 hour later. Blood glucose was measured at 30-min intervals (*: P<0.05, **:P<0.01, n=5, Two-way ANOVA vs vehicle control).
(A) 4524-E7 provokes IR phosphorylation in various tissues of mice. Three-month-old C57BL/6J mice were starved for 12 h and then dosed with vehicle (0.5% methylcellulose) or 4524-E7 (20 mg/kg). Cell lysates from liver, muscle, and WAT were prepared at 3, 4, and 5 h after drug administration and analyzed by immunoblotting. (B) Basal and insulin-stimulated hepatic glucose production rates were measured by hyperinsulinemic-euglycemic clamp. […] (C) Hypoglycemic effect of 4524-E7 in C57BL/6J mice. C57BL/6J mice were starved for 12 h and then orally administrated with vehicle (0.5% methylcellulose) or 4524-E7 (5 mg/kg). Blood glucose was monitored at different time points as indicated (n=8, *: P<0.05, two-way ANOVA). (D) Hypoglycemic effect in db/db mice. db/db mice were starved for 12 h and then orally injected with vehicle (0.5% methylcellulose) or 4524-E7 (5 mg/kg). Blood glucose was monitored at different time points as indicated (n=5, *: P<0.05, two-way ANOVA). (E) Glucose tolerance test in ob/ob mice. The mice were starved for 12 hours and then orally administrated with vehicle or 4524-E7 (5 mg/kg). A bonus of glucose (2 gm/kg) was injected intraperitoneally 1 hour later. Blood glucose was then measured at 30 min intervals (n=13, *: P<0.05; **: P<0.01, two-way ANOVA).
After a 12 h fasting, C57B5L/6J and db/db mice were bled from the tail vein for a baseline measurement with a glucometer (Accu-Chek; Roche Diagnostics, Indianapolis, Ind.). […] Blood glucose levels were measured at hourly intervals over 5 h.

[3] = molecular target: IR (Mus musculus, UniProt P15208); experiment: IR signaling in differentiated 3T3-L1 adipocytes (immunoblotting); assay type: cell-based; parameters: endogenous in cells; host or cells: differentiated 3T3-L1 adipocytes; conditions: for Akt and ERK phosphorylation after IR knockdown / ERK phosphorylation after IR knockdown: siRNA against IR; for Akt and ERK phosphorylation after IR knockdown: 5 μM 4524-E7 or insulin 100 nM; for IR phosphorylation: 5 nM; for ERK phosphorylation after IR knockdown: insulin 100 nM 15 min or DDN 5 μM 30 min
IR, sequence (P15208 28-1372): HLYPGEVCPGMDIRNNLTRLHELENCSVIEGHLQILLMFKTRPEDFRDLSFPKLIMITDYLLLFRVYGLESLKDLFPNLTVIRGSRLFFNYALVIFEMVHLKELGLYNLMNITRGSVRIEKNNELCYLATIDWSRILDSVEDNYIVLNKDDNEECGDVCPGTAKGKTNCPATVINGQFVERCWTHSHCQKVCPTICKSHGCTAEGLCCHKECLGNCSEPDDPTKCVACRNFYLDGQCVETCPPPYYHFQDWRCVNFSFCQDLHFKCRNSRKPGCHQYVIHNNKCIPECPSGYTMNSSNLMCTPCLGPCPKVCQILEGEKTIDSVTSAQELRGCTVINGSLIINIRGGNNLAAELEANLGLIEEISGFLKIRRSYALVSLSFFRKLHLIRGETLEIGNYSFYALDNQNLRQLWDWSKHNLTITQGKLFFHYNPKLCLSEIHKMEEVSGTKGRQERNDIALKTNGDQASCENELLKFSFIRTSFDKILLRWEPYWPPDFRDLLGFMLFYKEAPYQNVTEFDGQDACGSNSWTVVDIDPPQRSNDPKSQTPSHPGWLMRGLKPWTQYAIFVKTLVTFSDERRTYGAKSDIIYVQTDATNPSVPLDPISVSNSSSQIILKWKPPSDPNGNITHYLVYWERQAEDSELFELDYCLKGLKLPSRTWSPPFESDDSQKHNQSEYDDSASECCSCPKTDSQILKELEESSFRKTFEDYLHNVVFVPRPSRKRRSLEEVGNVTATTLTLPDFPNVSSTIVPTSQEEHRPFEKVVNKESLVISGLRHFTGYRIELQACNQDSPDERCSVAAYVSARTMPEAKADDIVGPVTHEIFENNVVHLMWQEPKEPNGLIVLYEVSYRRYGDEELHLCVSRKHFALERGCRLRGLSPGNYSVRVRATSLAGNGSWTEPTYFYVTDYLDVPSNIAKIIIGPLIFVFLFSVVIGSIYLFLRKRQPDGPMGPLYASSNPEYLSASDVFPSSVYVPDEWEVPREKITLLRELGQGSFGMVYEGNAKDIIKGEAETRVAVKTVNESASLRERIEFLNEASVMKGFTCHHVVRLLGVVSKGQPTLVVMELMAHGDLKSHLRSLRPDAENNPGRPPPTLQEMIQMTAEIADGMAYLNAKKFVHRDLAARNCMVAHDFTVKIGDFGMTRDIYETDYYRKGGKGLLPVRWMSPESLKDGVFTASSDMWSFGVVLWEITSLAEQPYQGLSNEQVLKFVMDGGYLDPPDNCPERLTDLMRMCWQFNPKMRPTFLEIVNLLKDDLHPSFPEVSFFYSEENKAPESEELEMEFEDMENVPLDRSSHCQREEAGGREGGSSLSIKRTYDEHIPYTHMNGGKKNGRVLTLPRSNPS
Method: Insulin signaling in the cell lysates were tested by immunoblotting. (B) DDN stimulates glucose uptake. […] [3H]2-deoxyglucose was then added, and the cells were further incubated for 10 min. [3H]2-deoxyglucose uptake by adipocytes was measured by scintillation counting (*: P<0.05 **: P<0.01 vs control, Student's t-test, n=3). (C) DDN synergizes insulin's signaling. […] Cell lysates were then prepared for Western blot using specific antibodies as indicated. […] 3H-2-deoxyglucose was then added, and the cells were further incubated for 10 min. 3H-2-deoxyglucose uptake by adipocytes was measured by scintillation counting (*: P<0.05; **: P<0.01, Student's t-test, n=3). (E) IR is necessary for DDN to induce ERK phosphorylation. Differentiated 3T3-L1 adipocytes were transfected with control siRNA or siRNA against IR. […] Cell lysates were analyzed by Western blot. (F) The glucose uptake induced by DDN in p85α knockout MEF cells. […] The uptake of 3H-2-deoxyglucose was monitored by liquid scintillation counting (*: P<0.05; **: P<0.01 vs control, Student's t-test, n=3).
(A) 4524-E7 activates IR phosphorylation and its downstream signaling in 3T3-L1 adipocytes. […] The cells were lysed, and immunoprecipitated with PY20, and followed by Western blot using specific antibodies. (B) 4524-E7 stimulates glucose uptake in 3T3-L1 adipocytes. […] [3H]2-deoxyglucose was added, and the cells were further incubated for 10 min. The amount of [3H]2-deoxyglucose taken by adipocytes was measured. (C) 4524-E7 inhibits fatty acid oxidation. […] Results were normalized to DMSO-treated cells and expressed as mean±S.E.M. (*: P<0.05; **:P<0.01, Student's t-test, n=3). (D) IR knockdown in adipocytes decreases IR signaling by 4524-E7. […] Cells lysates were collected and analyzed by Western blot. (E) The glucose uptake induced by 4524-E7 in p85α knockout MEF cells. […] The uptaken [3H] 2-deoxyglucose was monitored by liquid scintillation counter. Results were expressed as mean±S.E.M. (*: P<0.05; **:P<0.01, Student's t-test, n=3). […]

| Compound | glucose uptake as compared to control ([1]; 5 μM, 30 min) | lowest concentration significantly elevating glucose uptake ([1]; 30 min) [µM] | glucose uptake in combination with insulin ([1]; 4524-E7 plus 10 nM insulin, versus the two agents alone) | glucose uptake after depletion of IR [1] | blood glucose ([2]; 5 mg/kg oral, one hour after administration) | IR, Akt and Erk1/2 phosphorylation in combination with insulin ([3]; 4524-E7 plus 10 nM insulin) | activation of endogenous IR ([3]; different concentrations, 15 min, alone) | Akt and ERK phosphorylation after IR knockdown [3] | glucose uptake in combination with insulin ([1]; 5 nM DDN plus 5 nM insulin) | 3H-deoxyglucose uptake ([1]; DDN 0.1, 0.25, 0.5 μM, 30 min) | blood glucose as compared to vehicle control ([2]; 5 mg/kg oral, one h after administration) | duration of blood glucose lowering effect [2] | IR phosphorylation in combination with insulin ([3]; 5 nM DDN plus 5 nM insulin) | IR phosphorylation ([3]; alone) | IR and Akt activation ([3]; DDN 0.1, 0.25, 0.5 μM, 30 min) | ERK phosphorylation after IR knockdown [3] | 3H-deoxyglucose uptake ([1]; 5 nM, alone) |
| --- | --- | --- | --- | --- | --- | --- | --- | --- | --- | --- | --- | --- | --- | --- | --- | --- | --- |
| O=C1c2ccccc2C(=O)C2SC(Nc3ccc(Cl)cc3)=NC12 (stereo not shown) [4524-E7, 2-((4-chlorophenyl)amino)naphtho[2,3-d]thiazole-4,9(3aH,9aH)-dione] | nearly quadrupled | 1 | additively escalated | substantially diminished | about 50 % of the initial value | much more robust IR, Akt and Erk1/2 phosphorylation than insulin or 4524-E7 alone | could activate the endogenous IR | also reduced | – | – | – | – | – | – | – | – | – |
| CC(=O)Oc1ccc(OC(C)=O)c2c1C(=O)C(Cl)=C(Cl)C2=O [DDN, 5,8-diacetyloxy-2,3-dichloro-1,4-naphthoquinone] | – | – | – | – | – | – | – | – | further increased | escalated 3H-deoxyglucose uptake in a dose-dependent manner | lower blood glucose was found in db/db mice | sustain till the end of the experiment | higher than those observed when insulin or DDN was administrated separately | did not induce any IR activation | elicited a dose-dependent IR and Akt activation | reduced when IR was depleted | – |
| insulin: insulin, used as positive control | – | – | – | substantially diminished | – | – | – | also reduced | – | – | – | 2 h | – | able to trigger IR phosphorylation | – | reduced when IR was depleted | significantly increased |
